Results published in patent US9790235B2, “MK2 inhibitors and uses thereof” (Celgene CAR LLC, priority 2014, dated 2017).
Like-named read-outs stand apart in the source and are kept apart here.

Target: MK2 (Homo sapiens (Human), UniProt P49137)
[1] = percentage of modified protein after 60 minutes at room temperature, 10-fold excess of compound, MALDI (I-1 to I-50), magnetic bead MALDI (I-51 to I-129)
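Note: covalent binding read from centroid mass shift of compound-treated versus untreated intact MK2, shift divided by compound molecular weight, giving fraction of total protein bound.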

MK2, sequence (P49137 whole entry): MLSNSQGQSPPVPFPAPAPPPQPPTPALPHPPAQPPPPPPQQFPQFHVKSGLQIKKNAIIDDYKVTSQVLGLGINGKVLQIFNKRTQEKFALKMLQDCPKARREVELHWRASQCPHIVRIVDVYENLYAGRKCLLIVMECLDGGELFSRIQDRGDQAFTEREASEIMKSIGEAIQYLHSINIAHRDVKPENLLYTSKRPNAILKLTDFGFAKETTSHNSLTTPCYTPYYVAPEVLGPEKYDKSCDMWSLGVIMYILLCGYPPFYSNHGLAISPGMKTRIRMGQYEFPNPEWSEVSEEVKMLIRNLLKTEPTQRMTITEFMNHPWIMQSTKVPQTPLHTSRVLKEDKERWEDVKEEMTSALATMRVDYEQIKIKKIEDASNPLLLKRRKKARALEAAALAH

SMILES | Mass Modification [1] | Mass Modification
C[C@@H]1CNc2c(sc3ccc4nc(Nc5cc(F)nc(O[C@@H]6CCOC6)n5)ccc4c23)C(=O)N1 [I-41, (R)-3-((6-fluor-2-(((R)-tetrahydrofuran-3-yl)oxy)pyrimidin-4-yl)amino)-10-methyl-9,10,11,12-tetrahydro-8H-[1,4]diazepino[5′,6′:4,5]thieno[3,2-f]quinolin-8-one] | G (mass modification ≦30%) | 
C[C@@H]1CNc2c(sc3ccc4nc(Nc5nc(Cl)ncc5C(=O)NC5CCN(C)CC5)ccc4c23)C(=O)N1 [I-19, (R)-2-chloro-4-((10-methyl-8-oxo-9,10,11,12-tetrahydro-8H-[1,4]diazepino-[5′,6′:4,5]thieno[3,2-f]quinolin-3-yl)amino)-N-(1-methylpiperidin-4-yl)pyrimidine-5-carboxamide] |  | G (key: E: mass modification of ≧70%; F: mass modification of 31-69%; G: mass modification ≦30%)
C[C@@H]1CNc2c(sc3ccc4nc(Nc5nc(F)cc(O[C@H]6CCOC6)n5)ccc4c23)C(=O)N1 [I-50, (R)-3-((4-fluoro-6-(((S)-tetrahydrofuran-3-yl)oxy)pyrimidin-2-yl)amino)-10-methyl-9,10,11,12-tetrahydro-8H-[1,4]diazepino[5′,6′:4,5]thieno[3,2-f]quinolin-8-one] | F (mass modification of 31-69%) | 
C[C@@H]1CNc2c(sc3ccc4nc(Nc5cc(F)nc(O[C@H]6CCOC6)n5)ccc4c23)C(=O)N1 [I-40, (R)-3-((6-fluoro-2-(((S)-tetrahydrofuran-3-yl)oxy)pyrimidin-4-yl)amino)-10-methyl-9,10,11,12-tetrahydro-8H-[1,4]diazepino[5′,6′:4,5]thieno[3,2-f]quinolin-8-one] | G (mass modification ≦30%) | 
C[C@@H]1CNc2c(sc3ccc4nc(Nc5cc(F)nc(OCC6(C)COC6)n5)ccc4c23)C(=O)N1 [I-39, (R)-3-((6-fluoro-2-((3-methyloxetan-3-yl)methoxy)pyrimidin-4-yl)amino)-10-methyl-9,10,11,12-tetrahydro-8H-[1,4]diazepino[5′,6′:4,5]thieno[3,2-f]quinolin-8-one] | G (mass modification ≦30%) | 
C[C@@H]1CNc2c(sc3ccc4nc(Nc5cc(F)nc(OCCN(C)C)n5)ccc4c23)C(=O)N1 [I-32, (R)-3-((2-(2-(dimethylamino)ethoxy)-6-fluoropyrimidin-4-yl)amino)-10-methyl-9,10,11,12-tetrahydro-8H-[1,4]diazepino[5′,6′:4,5]thieno[3,2-f]quinolin-8-one] | F (mass modification of 31-69%) | 
C[C@@H]1CNc2c(sc3ccc4nc(Oc5nc(Cl)nc(N6CCCC(F)(F)C6)n5)ccc4c23)C(=O)N1 [I-78, (R)-3-((4-chloro-6-(3,3-difluoropiperidin-1-yl)-1,3,5-triazin-2-yl)oxy)-10-methyl-9,10,11,12-tetrahydro-8H-[1,4]diazepino[5′,6′:4,5]thieno[3,2-f]quinolin-8-one] | E (mass modification of ≧70%) | 
C[C@@H]1CNc2c(sc3ccc4nc(Nc5nc(F)cc(O[C@@H]6CCOC6)n5)ccc4c23)C(=O)N1 [I-46, (R)-3-((4-fluoro-6-(((R)-tetrahydrofuran-3-yl)oxy)pyrimidin-2-yl)amino)-10-methyl-9,10,11,12-tetrahydro-8H-[1,4]diazepino[5′,6′:4,5]thieno[3,2-f]quinolin-8-one] | F (mass modification of 31-69%) | 
C[C@@H]1CNc2c(sc3ccc4nc(Oc5nc(Cl)ncc5CNC(C)(C)C)ccc4c23)C(=O)N1 [I-102, (R)-3-((5-((tert-butylamino)methyl)-2-chloropyrimidin-4-yl)oxy)-10-methyl-9,10,11,12-tetrahydro-8H-[1,4]diazepino[5′,6′:4,5]thieno[3,2-f]quinolin-8-one] | E (mass modification of ≧70%) | 
C[C@@H]1CNc2c(sc3ccc4nc(Nc5cc(F)nc(OC6COC6)n5)ccc4c23)C(=O)N1 [I-37, (R)-3-((6-fluoro-2-(oxetan-3-yloxy)pyrimidin-4-yl)amino)-10-methyl-9,10,11,12-tetrahydro-8H-[1,4]diazepino[5′,6′:4,5]thieno[3,2-f]quinolin-8-one] | F (mass modification of 31-69%) | 
C[C@@H]1CNc2c(sc3ccc4nc(Nc5nc(F)cc(OCC6(C)COC6)n5)ccc4c23)C(=O)N1 [I-43, (R)-3-((4-fluoro-6-((3-methyloxetan-3-yl)methoxy)pyrimidin-2-yl)amino)-10-methyl-9,10,11,12-tetrahydro-8H-[1,4]diazepino[5′,6′:4,5]thieno[3,2-f]quinolin-8-one] | G (mass modification ≦30%) | 
C[C@@H]1CNc2c(sc3ccc4nc(Nc5cc(F)nc(F)c5)ccc4c23)C(=O)N1 [I-6, (R)-3-((2,6-difluoropyridin-4-yl)amino)-10-methyl-9,10,11,12-tetrahydro-8H-[1,4]diazepino[5′,6′:4,5]thieno[3,2-f]quinolin-8-one] | G (mass modification ≦30%) | 
C[C@@H]1CNc2c(sc3ccc4nc(Nc5cc(F)nc(O[C@@H]6CCN(C)C6)n5)ccc4c23)C(=O)N1 [I-49, (R)-3-((6-fluor-2-(((R)-1-methylpyrrolidin-3-yl)oxy)pyrimidin-4-yl)amino)-10-methyl-9,10,11,12-tetrahydro-8H-[1,4]diazepino[5′,6′:4,5]thieno[3,2-f]quinolin-8-one] | G (mass modification ≦30%) | 
C[C@@H]1CNc2c(sc3ccc4nc(Oc5nc(Cl)nc(N6CCC(F)(F)C6)n5)ccc4c23)C(=O)N1 [I-77, (R)-3-((4-chloro-6-(3,3-difluoropyrrolidin-1-yl)-1,3,5-triazin-2-yl)oxy)-10-methyl-9,10,11,12-tetrahydro-8H-[1,4]diazepino[5′,6′:4,5]thieno[3,2-f]quinolin-8-one] | E (mass modification of ≧70%) | 
